In patent US12522595B2, “Bicyclic ether O-glycoprotein-2-acetamido-2-deoxy-3-D-glucopyranosidase inhibitors” (BIOGEN MA INC., priority 2019, dated 2026):

Biological target: T1, Recombinant full length human OGA enzyme (Homo sapiens, UniProt O60502)
T1 construct: Recombinant full length human OGA enzyme was purchased from Origene; purchased Origene
T1 sequence (O60502 1-916): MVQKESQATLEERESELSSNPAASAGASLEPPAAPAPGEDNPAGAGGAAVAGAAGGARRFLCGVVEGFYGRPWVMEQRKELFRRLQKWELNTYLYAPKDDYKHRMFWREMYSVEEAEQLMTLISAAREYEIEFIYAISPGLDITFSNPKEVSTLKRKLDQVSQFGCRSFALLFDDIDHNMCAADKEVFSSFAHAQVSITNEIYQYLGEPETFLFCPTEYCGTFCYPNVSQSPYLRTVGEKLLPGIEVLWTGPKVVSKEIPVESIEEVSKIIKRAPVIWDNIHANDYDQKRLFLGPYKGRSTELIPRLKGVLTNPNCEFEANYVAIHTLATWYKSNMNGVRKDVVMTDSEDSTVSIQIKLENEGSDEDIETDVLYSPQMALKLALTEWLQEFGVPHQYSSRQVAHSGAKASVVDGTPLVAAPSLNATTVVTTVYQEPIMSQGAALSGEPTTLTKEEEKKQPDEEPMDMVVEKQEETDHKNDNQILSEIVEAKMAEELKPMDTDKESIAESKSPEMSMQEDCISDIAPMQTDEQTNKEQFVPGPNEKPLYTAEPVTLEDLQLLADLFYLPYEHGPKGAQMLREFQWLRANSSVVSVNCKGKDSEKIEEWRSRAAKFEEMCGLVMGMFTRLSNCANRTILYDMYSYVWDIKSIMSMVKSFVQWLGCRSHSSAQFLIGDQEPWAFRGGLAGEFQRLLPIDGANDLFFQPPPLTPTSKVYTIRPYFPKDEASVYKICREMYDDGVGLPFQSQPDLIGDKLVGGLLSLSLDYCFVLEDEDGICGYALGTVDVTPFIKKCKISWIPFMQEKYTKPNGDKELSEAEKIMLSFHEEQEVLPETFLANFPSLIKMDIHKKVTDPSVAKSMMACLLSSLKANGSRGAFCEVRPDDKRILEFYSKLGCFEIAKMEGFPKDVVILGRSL
Test: OGA enzyme inhibition biochemical assay
Settings: 1 nM OGA, 100 μM 4-MUGlcNAc (Km), pH 6.4, 90 minutes at room temperature, 10-point dose-response from 20 μM
Summary of the method: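 1 nM OGA with 100 μM 4-MUGlcNAc (Km) in McIlvaine buffer pH 6.4, 0.01% BSA, 90 min at room temperature; quenched with 3M glycine pH 10, fluorescence Ex 355/Em 460 nm. 10-point, 4-fold dilutions from 20 μM; 4-parameter variable-slope fit.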

Compound | IC50
CC(=O)Nc1ncc(CN2C[C@H](Oc3nccn4nc(C(F)(F)F)cc34)C[C@@H]2C)s1 [Example 28, N-(5-(((2S,4R)-2-methyl-4-((2-(trifluoromethyl)pyrazolo[1,5-a]pyrazin-4-yl)oxy)pyrrolidin-1-yl)methyl)thiazol-2-yl)acetamide] | 5.4 nM
CC(=O)Nc1nc(F)c(CN2C[C@H](Oc3ccc4nccnc4n3)C[C@@H]2C)s1 [Example 117, N-(4-fluoro-5-(((2S,4R)-2-methyl-4-(pyrido[2,3-b]pyrazin-6-yloxy)pyrrolidin-1-yl)methyl)thiazol-2-yl)acetamide] | < 1 nM
CC(=O)Nc1ncc(CN2C[C@H](Oc3cc(C)nc4ccccc34)C[C@@H]2C)s1 [Example 13, N-(5-(((2S,4R)-2-methyl-4-((2-methylquinolin-4-yl)oxy)pyrrolidin-1-yl)methyl)thiazol-2-yl)acetamide] | < 1 nM
CC(=O)Nc1ncc(CN2C[C@H](Oc3ccc4ncoc4c3)C[C@@H]2C)s1 [Example 45, N-(5-(((2S,4R)-4-(benzo[d]oxazol-6-yloxy)-2-methylpyrrolidin-1-yl)methyl)thiazol-2-yl)acetamide] | < 1 nM
CC(=O)Nc1nc(F)c(CN2C[C@H](Oc3ccnc4ccnn34)C[C@@H]2C)s1 [Example 104, N-(4-fluoro-5-(((2S,4R)-2-methyl-4-(pyrazolo[1,5-a]pyrimidin-7-yloxy)pyrrolidin-1-yl)methyl)thiazol-2-yl)acetamide] | 3.8 nM
CC(=O)Nc1nc(F)c(CN2C[C@H](Oc3ncnc4occc34)C[C@@H]2C)s1 [Example 74, N-(4-fluoro-5-(((2S,4R)-4-(furo[2,3-d]pyrimidin-4-yloxy)-2-methylpyrrolidin-1-yl)methyl)thiazol-2-yl)acetamide] | < 1 nM
CC(=O)Nc1ncc(CN2C[C@H](Oc3ncc4c(n3)CCCC4)C[C@@H]2C)s1 [Example 10, N-(5-(((2S,4R)-2-methyl-4-((5,6,7,8-tetrahydroquinazolin-2-yl)oxy)pyrrolidin-1-yl)methyl)thiazol-2-yl)acetamide] | < 1 nM
CC(=O)Nc1ncc(CN2C[C@H](Oc3ccc4ccccc4n3)C[C@@H]2C)s1 [Example 8, N-(5-(((2S,4R)-2-methyl-4-(quinolin-2-yloxy)pyrrolidin-1-yl)methyl)thiazol-2-yl)acetamide] | < 1 nM
CC(=O)Nc1ncc(CN2C[C@H](Oc3nccc4ccc(C)cc34)C[C@@H]2C)s1 [Example 30, N-(5-(((2S,4R)-2-methyl-4-((7-methylisoquinolin-1-yl)oxy)pyrrolidin-1-yl)methyl)thiazol-2-yl)acetamide] | 7.9 nM
CC(=O)Nc1ncc(CN2C[C@H](Oc3ccnc4ccccc34)C[C@@H]2C)s1 [Example 19, N-(5-(((2S,4R)-2-methyl-4-(quinolin-4-yloxy)pyrrolidin-1-yl)methyl)thiazol-2-yl)acetamide] | 1.3 nM
CC(=O)Nc1ncc(CN2C[C@H](Oc3cc4nccn4cn3)C[C@@H]2C)s1 [Example 39, N-(5-(((2S,4R)-4-(imidazo[1,2-c]pyrimidin-7-yloxy)-2-methylpyrrolidin-1-yl)methyl)thiazol-2-yl)acetamide] | < 1 nM

Further lines, results first:

IC50 | Compound
< 1 nM | CC(=O)Nc1nc(F)c(CN2C[C@H](Oc3cn4nccc4cn3)C[C@@H]2C)s1 [Example 171, N-(4-fluoro-5-(((2S,4R)-2-methyl-4-(pyrazolo[1,5-a]pyrazin-6-yloxy)pyrrolidin-1-yl)methyl)thiazol-2-yl)acetamide]
< 1 nM | CC(=O)Nc1ncc(CN2C[C@H](Oc3cccc4cn(C)nc34)C[C@@H]2C)s1 [Example 159, N-(5-(((2S,4R)-2-methyl-4-((2-methyl-2H-indazol-7-yl)oxy)pyrrolidin-1-yl)methyl)thiazol-2-yl)acetamide]
1.8 nM | COc1cc2c(O[C@@H]3C[C@H](C)N(Cc4sc(NC(C)=O)nc4F)C3)ncnc2cc1F [Example 125, N-(4-fluoro-5-(((2S,4R)-4-((7-fluoro-6-methoxyquinazolin-4-yl)oxy)-2-methylpyrrolidin-1-yl)methyl)thiazol-2-yl)acetamide]
< 1 nM | CC(=O)Nc1nc(F)c(CN2C[C@H](Oc3ncnc4cccc(F)c34)C[C@@H]2C)s1 [Example 124, N-(4-fluoro-5-(((2S,4R)-4-((5-fluoroquinazolin-4-yl)oxy)-2-methylpyrrolidin-1-yl)methyl)thiazol-2-yl)acetamide]
< 1 nM | COc1cc2c(O[C@@H]3C[C@H](C)N(Cc4sc(NC(C)=O)nc4F)C3)ccnc2cc1F [Example 128, N-(4-fluoro-5-(((2S,4R)-4-((7-fluoro-6-methoxyquinolin-4-yl)oxy)-2-methylpyrrolidin-1-yl)methyl)thiazol-2-yl)acetamide]
< 1 nM | CC(=O)Nc1nc(F)c(CN2C[C@H](Oc3ccc4nnn(C)c4n3)C[C@@H]2C)s1 [Example 150, N-(4-fluoro-5-(((2S,4R)-2-methyl-4-((3-methyl-3H-[1,2,3]triazolo[4,5-b]pyridin-5-yl)oxy)pyrrolidin-1-yl)methyl)thiazol-2-yl)acetamide]
